Source: patent US8476449B2, “Radioactive iodine labeled organic compound or salt thereof” (Nihon Medi-Physics Co., Ltd., priority 2010, dated 2013)

How the values were obtained:
Aβ42 aggregate = target: T1, Aβ42 aggregate (Homo sapiens, UniProt P05067); assay: Inhibition constant toward Aβ42 aggregate (thioflavin S competition); type: binding; settings: thioflavin S as ligand, read-out: Ki values (Aβ42 in Table 5)
T1 construct: Aβ (1-42) peptide; purchased Peptide Institute, Inc
Method: (§1) First, the dissociation constant (Kd) of thioflavin S used as a competitive ligand was first determined by a saturation experiment in order to calculate inhibition constants of compounds 1 to 3. That is, a mixed solution of a 10 vol % ethanol aqueous solution of thioflavin S (0.1-12.8 μmol/L) and the tau protein aggregate (final concentration 0.2 μmol/L, prepared in Example 9) or the Aβ42 aggregate (final concentration 2.2 μmol/L, prepared in Example 11) was incubated for 30 minutes, and the fluorescence intensity was measured using a fluorescence plate reader (FLEX STATION, Molecular Devices). The fluorescence intensity was measured at Ex 440 nm and Em 510 nm for the tau protein aggregate and Ex 440 nm and Em 490 nm for the Aβ42 aggregate. A saturation curve was prepared using GraphPad Prism, and the Kd value for thioflavin S was calculated.
(§2) Next, a mixed solution of a 10 volt ethanol aqueous solution of thioflavin S (1.5 μmol/L) and a test compound (0.6 nmol/L to 10 μmol/L) together with the tau protein aggregate (final concentration 0.2 μmol/L, prepared in Example 9) or the Aβ42 aggregate (final concentration 10 μg/ml, prepared in Example 11) was incubated for 30 minutes. Then, the fluorescence intensities at Ex 440 nm and Em 510 nm for the tau protein aggregate and Ex 440 nm and Em 490 nm for the Aβ42 aggregate were measured using a fluorescence plate reader (FLEX STATION, Molecular Devices). GraphPad Prism inhibition curves were prepared, and Ki values of compounds 1 to 3 were determined using the above obtained Kd value of thioflavin S.

[1] = test system: human brain neurofibrillary tangles; assay: Fluorescent staining of Alzheimer's disease patient brain slice (binding to human brain neurofibrillary tangles); settings: 200 μmol/L, 1 hour
Method: A fluorescent staining experiment with compound 3 using an Alzheimer's disease patient brain slice was carried out in order to evaluate binding to human brain neurofibrillary tangles. A postmortem brain slice (paraffin-embedded slice) of an Alzheimer's disease patient purchased from BioChain was washed with xylene (5 minutes×twice), ethanol, ethanol, a 95 vol % ethanol aqueous solution, an 85 volt ethanol aqueous solution, and a 70 vol % ethanol aqueous solution (1 minute×once) to thus carry out deparaffinization. Subsequently, it was treated in sequence with a 0.3 wt % potassium permanganate aqueous solution (20 minutes×once), PBS (phosphoric acid buffer physiological saline) (2 minutes×twice), a 1 wt % potassium metabisulfite aqueous solution/1 wt % oxalic acid aqueous solution (1 minute×once), PBS (2 minutes×twice), a 1 wt % sodium borohydride aqueous solution (5 minutes×once), and PBS (2 minutes×twice) in order to remove self-fluorescence of the slice. Blocking using 3 wt % BSA-containing PBS/0.1 wt % tritonX100-containing PBS was carried out for 3 hours. Then, a test compound (200 μmol/L/50 vol % ethanol aqueous solution) and the slice were incubated for 1 hour. The slice was washed with 50 vol % ethanol, and examined using a fluorescence microscope. Furthermore, the same slice was stained using thioflavin S (0.125 wt %, 50 vol % ethanol aqueous solution) for 10 minutes. […]

tau protein aggregate [2] = target: T2, tau protein aggregate (Homo sapiens, UniProt P10636); assay: Competitive inhibition experiment using thioflavin S (ThS) as ligand, fluorescence spectra; type: binding; parameters: made in house; host or cells: E. coli BL21; settings: tau protein aggregate 0.2 μmol/L, thioflavin S 1.5 μmol/L, compound 0.1-2.7 μmol/L, excitation 440 nm
T2 sequence (P10636 1-441 isoform P10636-8): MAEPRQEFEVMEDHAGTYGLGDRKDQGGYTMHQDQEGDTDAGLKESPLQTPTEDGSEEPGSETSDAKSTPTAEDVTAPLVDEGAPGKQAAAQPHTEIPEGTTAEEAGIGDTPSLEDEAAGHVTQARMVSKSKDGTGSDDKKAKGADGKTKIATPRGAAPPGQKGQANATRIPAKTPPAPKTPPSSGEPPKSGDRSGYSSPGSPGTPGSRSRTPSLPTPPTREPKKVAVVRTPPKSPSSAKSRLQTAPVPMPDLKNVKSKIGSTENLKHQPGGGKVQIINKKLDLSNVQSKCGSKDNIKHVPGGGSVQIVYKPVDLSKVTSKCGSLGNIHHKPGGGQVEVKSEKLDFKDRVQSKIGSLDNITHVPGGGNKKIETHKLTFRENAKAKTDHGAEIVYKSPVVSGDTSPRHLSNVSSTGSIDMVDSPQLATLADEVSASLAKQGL
Method: Tau-441 expression vector (provided by Graduate School of Medicine, Osaka City University) was transferred to E. coli (BL21), culturing was carried out, and a tau protein was extracted and purified. Heparin (0.1 mg/mL) was added to the purified tau protein (1 mg/mL), and incubation in a 50 mmol/L MES buffer (pH 6.8, 100 mmol/L sodium chloride, 0.5 mmol/L EGTA) at 37° C. was carried out for 3 days, thus preparing an aggregate. Formation of the tau protein aggregate was confirmed by SDS-PAGE and thioflavin S fluorescence assay.
A mixed solution (550 μL) of the tau protein aggregate (final concentration […]) thus prepared, thioflavin S (Sigma Aldrich, final concentration 1.5 μmol/L), and compound 1, compound 2, or compound 3 solution at various concentrations (each having final concentrations of 0 to 2.7 μmol/L) was incubated for 30 minutes, and fluorescence spectra at an excitation wavelength of 440 nm were measured using a fluorescence spectrometer (RF-5300PC, Shimadzu Corporation).
In FIGS. 3 to 5, a is a fluorescence spectrum of a sample (sample I) containing only thioflavin S at 1.5 μmol/L, and b is a fluorescence spectrum of a sample (sample II) that is 0.2 μmol/L of the tau protein aggregate in sample I. In FIG. 3, c is a fluorescence spectrum of a sample that is 0.1 μmol/L of compound 1 in sample II, d is a fluorescence spectrum of a sample that is 0.3 μmol/L of compound 1 in sample II, e is a fluorescence spectrum of a sample that is 0.9 μmol/L of compound 1 in sample II, and f is a fluorescence spectrum of a sample that is 2.7 μmol/L of compound 1 in sample II. In FIG. 4, c is a fluorescence spectrum of a sample that is 0.1 μmol/L of compound 2 in sample II, d is a fluorescence spectrum of a sample that is 0.3 μmol/L of compound 2 in sample II, e is a fluorescence spectrum of a sample that is 0.9 μmol/L of compound 2 in sample II, and f is a fluorescence spectrum of a sample that is 2.7 μmol/L of compound 2 in sample II. […]

tau protein aggregate [3] = target: T2, tau protein aggregate; assay: Inhibition constant toward tau protein aggregate (thioflavin S competition); type: binding; parameters: made in house; host or cells: E. coli BL21
Method: as §1, §2

T1 sequence (P05067 672-713 limits assumed): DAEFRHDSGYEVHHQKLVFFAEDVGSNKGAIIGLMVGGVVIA

Ki (Aβ42 aggregate): 469 nM | Fluorescent staining of brain slice vs AT8 immunostaining [1]: Prominent fluorescence accumulation | Ki ratios of Aβ42/Tau (tau protein aggregate [3]; ratio of Ki Aβ42 aggregate to Ki tau protein aggregate): 7.33 | Ki (tau protein aggregate [3]; thioflavin S as ligand, tau protein aggregate, read-out: Ki values (Tau in Table 5)): 64 nM
Compound: O=C1/C(=C/c2ccc(-c3cccc(I)c3)o2)NC(=S)N1CCc1c[nH]cn1 [Compound 3, (Z)-3-(2-(1H-imidazol-4-yl)ethyl)-5-((5-(3-iodophenyl)furan-2-yl)methylene)-2-thioxoimidazolidin-4-one]
Inhibition of binding of tau protein aggregate to thioflavin S (fluorescence spectra) (tau protein aggregate [2]): inhibition of binding of a tau protein aggregate to thioflavin S
